The results in this text go back to patent US5047397A, “Linear analogs of atrial natriuretic peptides” (California Biotechnology Inc., priority 1988, dated 1991).

Where a SMILES comes first, the peptide text is derived from it. Bridges are numbered along the chain shown (N, C = ends).

The target in assay [1] is T1, specific ANP receptor sites on BASM or BAE cells (Bos taurus, UniProt P10730).
T1 construct: specific receptor sites on BASM or BAE cells; endogenous in cells; host or cells: cultured BASM and BAE cells
T1 sequence (P10730 42-537): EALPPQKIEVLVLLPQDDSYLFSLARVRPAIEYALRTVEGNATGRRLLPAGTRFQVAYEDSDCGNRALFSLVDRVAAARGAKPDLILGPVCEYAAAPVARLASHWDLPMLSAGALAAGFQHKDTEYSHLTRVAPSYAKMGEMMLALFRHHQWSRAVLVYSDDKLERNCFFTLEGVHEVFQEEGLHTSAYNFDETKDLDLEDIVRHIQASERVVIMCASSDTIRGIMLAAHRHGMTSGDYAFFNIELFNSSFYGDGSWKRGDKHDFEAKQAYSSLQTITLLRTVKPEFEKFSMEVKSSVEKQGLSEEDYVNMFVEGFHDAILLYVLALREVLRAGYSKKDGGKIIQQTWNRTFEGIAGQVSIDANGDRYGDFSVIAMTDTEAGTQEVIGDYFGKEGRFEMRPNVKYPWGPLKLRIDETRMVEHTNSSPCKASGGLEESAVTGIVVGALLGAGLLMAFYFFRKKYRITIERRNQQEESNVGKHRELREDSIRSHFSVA
The assay can be described thus: Competitive displacement receptor binding of (125I)-rANP(126-150) on cultured cells. More on the design: species or system bovine. The following applies: Table 2A; unit not given; in nM. From the text: Analogous "competitive displacement" receptor binding assays are considered commonplace in the art for examining specific ligand-receptor interactions.
Assuming these ANP analogs act at one or more ANP receptor sites, then increased receptor affinity should reflect increased biological potency.

Assay [2] deals with anesthetized rats. The assay can be described thus: Diuresis in anesthetized rats. The class given is in vivo, rat. The protocol:
In one set of examples, cannulae were placed in the left and right ureters and femoral vein of anesthetized rats and urine was collected from the ureters. Analog peptides were administered via the femoral vein. Prior to infusing the analog peptides, saline was infused for 30 minutes, urine was collected for 6 five-minute baseline periods and urine volume was determined gravimetrically. Following these baseline collection periods, various analog peptides were infused for 30 or 60 minutes and urine volume was measured in five-minute periods during infusion and for 60 minutes following infusion (at which time rats were returned to saline). Data was examined by averaging urine flow rates for six five-minute baseline control periods immediately preceding infusion, and comparing values during and after administration of peptides with the "baseline" control values. Responses to peptides are thus evaluated and plotted as the percent of baseline control responses. Specific examples are shown in FIGS. 3A-H. The error bars at the beginning of the graphs represent baseline values +standard deviations. Responses to peptides that are substantially above baseline ±SD can thus be interpreted as being statistically significant increases.

The test system of assay [3] is anesthetized rats. The assay can be described thus: Blood pressure responses in anesthetized rats. It is filed as in vivo, rat. The following applies: infusion 733 p mol/kg/min.
For assay [4], the system named is isolated perfused rat kidney. Put plainly: Natriuresis and diuresis in the isolated perfused rat kidney. The following applies: for FENa (fractional sodium excretion) / FF (filtration fraction) / GFR (glomerular filtration rate) / RVR (renal vascular resistance) / UNa V (urinary sodium excretion rate) / V (urine flow rate): N=4. From the text: The results are in Table 2C.

The test system of assay [5] is cortical-associated receptor sites of the kidney. The assay can be described thus: Competition for specific (125I)-rANP(123-150) binding in the kidney. More on the design: species or system rat. As to conditions: competitor 10^-7 M, tracer 4 × 10^-12 M, n=3.
Setting [6] is: [C] period of section D: AP57 10^-7 M present, before rANP(123-150).

Compound `CC[C@H](C)[C@@H]1NC(=O)[C@H](CCCNC(=N)N)NC(=O)[C@H](CC(=O)O)NC(=O)[C@H]([C@@H](C)CC)NC(=O)[C@H](CCCNC(=N)N)NC(=O)CNC(=O)CNC(=O)[C@H](Cc2ccccc2)NC(=O)[C@@H](NC(=O)[C@H](CO)NC(=O)[C@H](CO)NC(=O)[C@@H](N)CCCNC(=N)N)CSSC[C@@H](C(=O)N[C@@H](CC(N)=O)C(=O)N[C@@H](CO)C(=O)N[C@@H](Cc2ccccc2)C(=O)N[C@@H](CCCNC(=N)N)C(=O)N[C@@H](Cc2ccc(O)cc2)C(=O)O)NC(=O)[C@H](C)NC(=O)CNC1=O` [AP20, R--S--S--C--F--G--G--R--I--D--R--I--G--A--C--N--S--F--R--Y] (H-RSSCFGGRIDRIGACNSFRY-OH; disulfide 4-15) gave a Ki in assay [1] of 7.50. Further, in assay [2] (infused at 5 mcg/min via femoral vein, versus baseline, FIG. 3), the “urine flow rate (urine volume), diuretic response” value was “significantly increased”. For the same compound, the “Blood Pressure” value in assay [3] is listed as -34 ± 3.
In the case of `CC[C@H](C)[C@@H]1NC(=O)[C@H](CCCNC(=N)N)NC(=O)[C@H](CC(=O)O)NC(=O)[C@H]([C@@H](C)CC)NC(=O)[C@H](CCCNC(=N)N)NC(=O)CNC(=O)CNC(=O)[C@H](Cc2ccccc2)NC(=O)[C@@H](NC(=O)[C@H](CO)NC(=O)[C@H](CO)NC(=O)[C@@H](N)CCCNC(=N)N)CSSC[C@@H](C(N)=O)NC(=O)[C@H](C)NC(=O)CNC1=O` [AP57, R-S-S-C-F-G-G-R-I-D-R-I-G-A-C-NH2] (H-RSSCFGGRIDRIGAC-NH2; disulfide 4-15), the Ki in assay [1] is 8.2. Besides, the “in vivo diuretic/natriuretic activity in rats, in words” value in assay [2] (dose not stated) was “natriuretic and diuretic activities”. For the same compound, in assay [4] (10^-7 M), the “natriuretic/diuretic activity in the isolated perfused rat kidney, in words” value is on record as “not active”. For the same compound, in assay [4] (AP57 10^-7 M alone, mean ± SE), the “FENa (fractional sodium excretion)” value stood at 0.24 ± 0.08%, the “FF (filtration fraction)” value came out at 1.37 ± 0.22%, the “GFR (glomerular filtration rate)” value is 0.55 ± 0.07 mL/min and the “RVR (renal vascular resistance)” value was found to be 2.27 ± 0.17 mmHg/ml/min. Also, in assay [4] (AP57 10^-7 M alone, mean ± SE), the “UNa V (urinary sodium excretion rate)” value is reported as 0.17 ± 0.04 uEq/min and the “V (urine flow rate)” value was determined as 13.8 ± 2.0 µL/min. For the same compound, in assay [4] (setting [6]), the “FENa (fractional sodium excretion)” value amounted to 0.18 ± 0.04%, the “FF (filtration fraction)” value stood at 1.57 ± 0.27%, the “GFR (glomerular filtration rate)” value was found to be 0.65 ± 0.06 mL/min and the “RVR (renal vascular resistance)” value is on record as 2.21 ± 0.21 mmHg/ml/min. Also, in assay [4] (setting [6]), the “UNa V (urinary sodium excretion rate)” value came to 0.17 ± 0.05 uEq/min and the “V (urine flow rate)” value amounted to 16.3 ± 2.0 µL/min. Moreover, in assay [4] (pretreatment of the isolated kidney with 10^-7 M AP57), the “modulation of renal responses to rANP(123-150), in words” value was “increased the potency of rANP(123-150)”. Also, the “RATIO OF BOUND/FREE (125I)-rANP(123-150), Whole Kidney” value in assay [5] (tracer alone 122 ± 46) is 1.27 ± 0.32. In addition, the “RATIO OF BOUND/FREE (125I)-rANP(123-150), Outer Cortex” value in assay [5] (tracer alone 176 ± 23) turned out to be 1.68 ± 0.44.
